Reference: patent US20250189537A1, “MULTI-FLUORESCENCE MICROFLUIDIC PLATFORM FOR EVALUATING RISKS OF SHEAR-DRIVEN ARTERIAL THROMBOSIS AND FAST ANTITHROMBOTIC DRUG SCREENING” (Board of Regents, The University of Texas System, priority 2023, published 2025)
Where a name gives a salt, the structure may show the parent alone.

Columns and labels:
[1] = system: biomechanical platelet aggregation; assay: Microfluidic stenosis assay (thrombus size, single fluorescence imaging); format: cell-based, human; settings: for thrombus formation: replacing heparin for anticoagulation; for inhibition to the biomechanical thrombogenesis: separately and combined at twice or 20 times of human plasmatic concentrations
Method: Microfluidic devices with single-hump stenosis microchannels can be coated with VWF monomer solution. Heparin added whole blood is incubated with DiOC6 (3), or with a set of predetermined sensors. As used herein, a sensor is a compound or protein (e.g., antibody) that specifically binds a selected molecule, peptide, or protein present in a thrombus, the sensor can optionally include a detectable tag. A detectable tag can include but is not limited to a fluorescent tag. In certain aspects a first sensor set (Sensor Set 1) can include one or more of SZ22-FITC, Fg-Alexa Fluor® 405, 2.2.9-Alexa Fluor® 555 and AK4-Alexa Fluor® 647. In certain aspects a second sensor set (Sensor Set 2) can include SZ22-FITC, Annexin V-Pacific Blue, MBC 370.2-Alexa Fluor® 555 and PAC-1-Alexa Fluor® 647. A thrombogenic sample, e.g., blood, can be introduced via a reservoir at a microchannel inlet and perfused through the microchannel at a predetermined flow rate. In certain aspects the sample is moved through the microchannel using a pump withdraw mode via a syringe or similar apparatus connected to a microchannel outlet. The microchannel at the site of stenosis can be recorded in real time with multi-fluorescence imaging using appropriate equipment. In certain aspects the multi-fluorescence imaging is performed with a LED5 fluorescence light source and a multi-pass filter (excitation-emission: 391/32-435/30, 479/33-519/25, 554/24-594/32 and 638/31-695/58 nm). Autofluorescence of platelets can be detected in the 391/32-435/30 nm channel (Lohmann and Lohmann, Biochemical and biophysical research communications 152, 1410-1415, 1988), the signal intensity of which can be subtracted when calculating signals from other sensors.
Thrombus profiling assay: development and validation. Each microfluidic chip is composed of 10 rectangular (width×height: 200 μm×50 μm) channels with respective inlets and outlets for tubing connection (FIG. 1A, 1B). A pump drives a syringe to perfuse heparinized blood (0.5 mL) through the channel pre-coated with VWF. An 80% stenosis site stimulates biomechanical thrombogenesis (FIG. 1C). A perfusion rate of 18 μL min^−1 was selected, which creates a wall shear stress (WSS) of 857 dyn cm^−2 at the stenosis site according to fluid dynamics simulation (FIG. 1D). The same stenosis site WSS is achieved by an inlet wall shear rate of 1485 s-1 in a circular vessel with the same cross-sectional area, mimicking human arterioles (Yakusheva et al. Blood advances 6, 4834-46), human arteries during systole, and mouse arteries (Panteleev et al., Journal of thrombosis and haemostasis JTH 19, 588-95). The calculated Reynolds numbers in channels of different shapes are also within the same scale. […]

[2] = system: ADP or collagen-induced platelet aggregation; settings: at much lower concentrations; cited from earlier work
[3] = phase III trials; cited from earlier work

| Compound | thrombus formation [1] | inhibition to the biomechanical thrombogenesis [1] | inhibition of ADP or collagen-induced platelet aggregation [2] | patient mortality vs placebo [3] |
| --- | --- | --- | --- | --- |
| O=C(O)CN(CCN(CC(=O)O)CC(=O)O)CC(=O)O [EDTA, ethylenediaminetetraacetic acid] | attenuated | – | – | – |
| CC(=O)Oc1ccccc1C(=O)O [aspirin] | – | negligible inhibition | significantly inhibit | – |
| O=C(O)CC(O)(CC(=O)O)C(=O)O [citrate, sodium citrate] | attenuated | – | – | – |
| COC(=O)[C@H](c1ccccc1Cl)N1CCc2sccc2C1 [clopidogrel] | – | negligible inhibition | significantly inhibit | – |
| CCOC(=O)CCNC(=O)N[C@H]1CCN(c2ccc(C(=N)N)cc2)C1=O [orbofiban] | – | – | – | significantly increased |
